How the values were obtained:
[1] = test system: gesunde männliche Probanden; assay: Double-blind 4-way crossover study, 7-day treatment periods, blood pressure and pulse in healthy volunteers; format: in vivo, human; conditions: for Diastolische Blutdruckwerte am 7. Versuchstag, Mittelwert / Systolische Blutdruckwerte am 7. Versuchstag, Mittelwert: mean of 6 Probanden, day 7, lying, 2,5 mg Cilazapril and/or 120 mg Propranolol daily; for Abfall des systolischen und diastolischen Blutdrucks: Monotherapie (2,5 mg Cilazapril or 120 mg Propranolol), day 7, healthy volunteers
Experimental: […] Proband […], wurde vor Beginn der Studie von jedem Probanden die […], und man […] Kontrollen verbunden war: […] Die Probanden hatten jeweils an den Versuchstagen 0 bis 6 […] zu […] Abend […] noch geraucht. Nach 5-minütiger Ruhepause im Sitzen wurden systolischer und diastolischer Blutdruck und Puls […] die Probanden […], und man […] unter Ueberwachung die Medikation mit 100 ml Leitungswasser und […] Hause. Am […] Probanden […]; die Untersuchungen […] bei 15° erhobenem Oberkörper durchgeführt. Nach jeweils 15-minütiger […] und Puls zu den Zeitpunkten -2, 1, 2, 6, 8 und 24 Stunden gemessen.

[2] = test system: Patienten mit einer essentiellen Hypertonie; assay: Crossover study, 3-week treatment periods, sitting blood pressure in hypertensive patients; format: in vivo, human; conditions: 3 weeks treatment, 2,5 mg Cilazapril and/or 120 mg Propranolol; for mittlere Senkung des diastolischen Blutdrucks: 2 Stunden after dosing, sitting, 13 patients; for Ansprechen (Senkung des diastolischen Blutdrucks auf unter 90 mmHg): number of responders
Experimental: B) Zehn männliche und drei weibliche Patienten mit einer essentiellen Hypertonie im Alter von 43-62 Jahren und mit einem Gewicht von 64-106 kg nahmen an dieser Crossover-Studie teil, die folgende drei Behandlungsabschnitte von jeweils 3 Wochen umfasste, wobei die Abschnitte (1) und (2) je nach Gruppe vertauscht waren: • (1) 2,5 mg Cilazapril • (2) 120 mg Propranolol • (3) 2,5 mg Cilazapril plus 120 mg Propranolol.
Mit Ausnahme von drei Patienten erhielt keiner während mindestens 2 Wochen vor Beginn einer zweiwöchigen Placebo-Behandlung eine blutdrucksenkende Medikation. […] Dann wurden die Patienten wahlweise in zwei Gruppen eingeteilt, wobei die eine Gruppe zuerst mit Cilazapril und die andere zuerst mit Propranolol behandelt wurde. Nach der dreiwöchigen Behandlungsdauer wurde die Medikation in den beiden Gruppen ausgetauscht. Während der Behandlungsabschnitte wurden alle Messungen 2 Stunden nach Verabreichung durchgeführt, wobei der Blutdruck jeweils im Sitzen gemessen wurde.
Als "Ansprechen" auf eine Therapie wurde in dieser Studie eine Senkung des diastolischen Blutdrucks auf unter 90 mmHg defineriert.

[3] = test system: Patienten, deren Bluthochdruck mit Captopril behandelt wird; conditions: added to Captopril treatment; Amery et al., Clinical Science 61 (1981); cited from earlier work

Row | SMILES | Diastolische Blutdruckwerte am 7. Versuchstag, Mittelwert ([1]; 1 Std) | Systolische Blutdruckwerte am 7. Versuchstag, Mittelwert ([1]; 1 Std) | Diastolische Blutdruckwerte am 7. Versuchstag, Mittelwert ([1]; 2 Std) | Systolische Blutdruckwerte am 7. Versuchstag, Mittelwert ([1]; 2 Std) | Diastolische Blutdruckwerte am 7. Versuchstag, Mittelwert ([1]; 6 Std) | Systolische Blutdruckwerte am 7. Versuchstag, Mittelwert ([1]; 6 Std) | Diastolische Blutdruckwerte am 7. Versuchstag, Mittelwert ([1]; 8 Std) | Systolische Blutdruckwerte am 7. Versuchstag, Mittelwert ([1]; 8 Std) | Diastolische Blutdruckwerte am 7. Versuchstag, Mittelwert ([1]; 24 Std) | Systolische Blutdruckwerte am 7. Versuchstag, Mittelwert ([1]; 24 Std) | Diastolische Blutdruckwerte am 7. Versuchstag, Mittelwert ([1]; -2 Std) | Systolische Blutdruckwerte am 7. Versuchstag, Mittelwert ([1]; -2 Std) | Abfall des systolischen und diastolischen Blutdrucks [1] | Abnahme der Herzfrequenz ([1]; Monotherapie, 120 mg Propranolol, day 7) | mittlere Senkung des diastolischen Blutdrucks [2] | Ansprechen (Senkung des diastolischen Blutdrucks auf unter 90 mmHg) [2] | Blood pressure effect of additional Propranolol [3] | Zunahme der Herzfrequenz ([1]; Monotherapie, 2,5 mg Cilazapril, day 7)
1 | CC(C)NCC(O)COc1cccc2ccccc12 (stereo not drawn) [Propranolol] | 63 mmHg | 106 mmHg | 67 mmHg | 106 mmHg | 60 mmHg | 110 mmHg | 65 mmHg | 108 mmHg | 76 mmHg | 115 mmHg | 72 mmHg | 111 mmHg | ca. 7 mmHg | ca. 8 Schläge/Minute | 9 mmHg | 2 von 13 Patienten | eine weitere Blutdrucksenkung | 
2 | CCOC(=O)[C@H](CCc1ccccc1)N[C@H]1CCCN2CCC[C@@H](C(=O)O)N2C1=O [Cilazapril, 9(S)-[1-(S)-Aethoxycarbonyl-3-phenylpropylamino]octahydro-10-oxo-6H-pyridazo[1,2-a]-[1,2]diazepin-1(S)-carbonsäure] | 72 mmHg | 109 mmHg | 69 mmHg | 104 mmHg | 63 mmHg | 107 mmHg | 66 mmHg | 108 mmHg | 74 mmHg | 118 mmHg | 73 mmHg | 109 mmHg | ca. 7 mmHg |  | 8 mmHg | 4 von 13 Patienten |  | ca. 5 Schläge/Minute

Source: EP0334164A2, “Antihypertensive combination preparation” (F. HOFFMANN-LA ROCHE AG, priority 1988, dated 1989)
